Experimental data published in ChEMBL document CHEMBL3992569, “Opioid Receptor Activity and Analgesic Potency of DPDPE Peptide Analogues Containing a Xylene Bridge” (ACS Med Chem Lett, 2017).
Activity calls are given as the source filed them. The calls are words filed in the database; no cut-off is given here.

Experiments:
Mus musculus [1] = assay: Antinociceptive activity in CD-1 mouse model of thermal-induced nociception assessed as increase in latency to tail withdrawal at 23 nmol/mouse, icv measured 15 to 60 mins post dose by tail flick test relative to control; type: functional
Mus musculus [2] = assay: Antinociceptive activity in CD-1 mouse model of thermal-induced nociception assessed as increase in latency to respond with hind paw lick or jumping at 23 nmol/mouse, icv measured 15 to 60 mins post dose by hot plate test relative to control; type: functional
Mus musculus [3] = assay: Analgesic activity in CD-1 mouse model of formalin-induced pain assessed as increase in latency to respond with hind paw lick or biting at 150 nmol/mouse, sc administered 15 mins prior to formalin injection measured up to 40 mins post dose; type: functional, organism-based
Mus musculus [4] = assay: Antinociceptive activity in CD-1 mouse model of thermal-induced nociception assessed as increase in latency to respond with hind paw lick or jumping at 23 nmol/mouse, icv measured 45 mins post dose by hot plate test; type: functional
Mus musculus [5] = assay: Antinociceptive activity in CD-1 mouse model of thermal-induced nociception assessed as increase in latency to tail withdrawal at 23 nmol/mouse, icv measured 45 mins post dose by tail flick test; type: functional

Q: Which results are given for `CC1(C)SCc2cccc(c2)CSC(C)(C)[C@@H](NC(=O)[C@@H](N)Cc2ccc(O)cc2)C(=O)NCC(=O)N[C@@H](Cc2ccccc2)C(=O)N[C@H]1C(=O)O.O=C(O)C(F)(F)F`?
A: MPE (Mus musculus [1]): >60%; MPE (Mus musculus [2]): >60%; Activity (Mus musculus [3]): Active

Q: With `CC1(C)SSC(C)(C)[C@@H](NC(=O)[C@@H](N)Cc2ccc(O)cc2)C(=O)NCC(=O)N[C@@H](Cc2ccccc2)C(=O)N[C@H]1C(=O)O` as the compound, how does the Activity (Mus musculus [4]) read?
A: Active

Q: And the Activity (Mus musculus [3])?
A: inactive

Q: What about the Activity (Mus musculus [5]) of the same compound?
A: Active
